In patent publication US9670261B2 (Sanofi, priority 2012, dated 2017):
pEC50: −log10 of the molar value. *1 amine or outer side, *2 acyl side, *3 side chain or, on linkers, in order; H or OH if unused. Where a SMILES comes first, the peptide text is derived from it. Side-chain parts run from the residue outwards. [ ]: non-standard residue; d: D form. The star is where a group is joined. γGlu = O=C(O)[C@H](CCC(=O)[*:2])N[*:1]; Stearoyl = CCCCCCCCCCCCCCCCCC(=O)*; Aib = CC(C)(N)C(=O)O

Key:
[1] = target: T1, human GLP-1 receptor (Homo sapiens, UniProt P43220); test: cAMP response (HTRF) of HEK-293 cells stably expressing human GLP-1 receptor; type: cell-based; conditions: Table 7; cAMP formation; read-out: EC50 hGLP-1 R
T1 construct: expressed in transfected cells
T1 sequence (P43220 24-463): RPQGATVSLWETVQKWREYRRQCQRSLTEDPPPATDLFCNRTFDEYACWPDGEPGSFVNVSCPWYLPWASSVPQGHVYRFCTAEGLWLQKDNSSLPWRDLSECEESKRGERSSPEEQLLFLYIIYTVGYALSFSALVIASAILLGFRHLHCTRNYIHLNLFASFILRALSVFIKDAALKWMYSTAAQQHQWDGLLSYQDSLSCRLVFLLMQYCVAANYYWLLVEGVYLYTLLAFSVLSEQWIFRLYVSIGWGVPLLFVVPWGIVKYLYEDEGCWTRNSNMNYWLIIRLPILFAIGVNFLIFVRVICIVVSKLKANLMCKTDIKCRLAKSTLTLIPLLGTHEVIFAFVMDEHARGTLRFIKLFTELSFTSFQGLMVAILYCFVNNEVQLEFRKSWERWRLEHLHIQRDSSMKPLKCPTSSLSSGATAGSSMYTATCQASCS
Procedure, shortened: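 After near-confluent growth in DMEM with 10% FBS, cells were washed in Ca/Mg-free PBS, lifted with accutase and diluted to 400000 cells/ml in IBMX (2 mM)-containing HEPES-buffered HBSS with 0.1% BSA. Compounds were applied for 30 minutes at room temperature before homogeneous time-resolved fluorescence quantitation of cAMP.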

[2] = test system: non-fasted female diabetic dbdb-mice; test: Glucose lowering in non-fasted female diabetic dbdb-mice; type: in vivo; conditions: 3 μg/kg s.c., at 240 min; baseline 20-22 mmol/l
Description: Female diabetic dbdb-mice of mean non-fasted glucose value of 20-22 mmol/l and a body weight of 42 g+/−0.6 g (SEM) were used. Mice were individually marked and were adapted to housing conditions for at least one week.
3-5 days prior to study start mice were assigned to groups and cages (4 mice per cage, 8 per group) according to their non-fasted glucose values to ensure even distribution of lower and higher values between groups (stratification). On the study day, mice were weighed and dosed (t=0). Immediately prior to compound administration feed was removed while water remained available, and a first blood sample at a tail incision was drawn (baseline). Further blood samples were drawn at the tail incision at 30, 60, 90, 120, 240, 360, and 480 min.
Statistical analyses are performed with Everstat Version 6.0 based on SAS by 2-way-ANOVA on repeated measures, followed by Dunnett's post-hoc test against vehicle-control. Differences are considered statistically significant at the p<0.05 level.
Female dbdb-mice, received 3 μg/kg of SEQ ID NO: 14, SEQ ID NO: 21 or phosphate buffered saline (vehicle control) subcutaneously, at time 0 min.

[3] = Solubility testing in buffer (HPLC-UV); conditions: buffer
[4] = Pharmacokinetic testing in mice, s.c.; conditions: mouse, plasma, sc, 1 mg/kg
Description: Mice were dosed 1 mg/kg subcutaneously (s.c.). The mice were sacrified and blood samples were collected after 0.25, 0.5, 1, 2, 4, 8, 16 and 24 hours post application. Plasma samples were analyzed after protein precipitation via liquid chromatography mass spectrometry (LC/MS). PK parameters and half-life were calculated using WinonLin Version 5.2.1 (non-compartment model).

[5] = Chemical stability in solution, 7 days at 25° C. (% remaining peptide); conditions: % remaining peptide after 7 days at 25° C.
Description: After that time course, the sample was centrifuged for 20 min at 4000 rpm and the supernatant was analysed with HPLC-UV. For determination of the amount of the remaining peptide, the peak areas of the target compound at t0 and t7 were compared, resulting in “% remaining peptide”, following the equation % remaining peptide=[(peak area peptide t7)×100]/peak area peptide t0.
The chemical stability is expressed as “% remaining peptide”.

[6] = test system: female diabetic dbdb-mice; test: Glucose, HbA1c and oral glucose tolerance in diabetic dbdb-mice, chronic treatment (method 4); type: in vivo; conditions: for oral glucose tolerance: once daily s.c., oral glucose 2 g/kg in the 4th week; for reduction of AUC under the glucose curve compared to vehicle control: oral glucose tolerance test, p<0.05
Description: 8 week old, female diabetic dbdb-mice of mean non-fasted glucose value of 14.5 mmol/l and a body weight of 37-40 g were used. Mice were individually marked and were adapted to housing conditions for at least one week.
7 days prior to study start, baseline values for non-fasted glucose and HbA1c were determined, 5 days prior to study start, mice were assigned to groups and cages (5 mice per cage, 10 per group) according to their HbA1c values to ensure even distribution of lower and higher values between groups (stratification).
Mice were treated for 4 weeks, by once daily subcutaneous administration 3 hours prior to the dark phase (6 pm to 6 am). Blood samples from a tail tip incision were obtained for HbA1c on study day 21 and oral glucose tolerance was assessed in the 4th week. Oral glucose tolerance test was done in the morning without prior extra compound administration to majorly assess the effect of chronic treatment and less of acute compound administration. Mice were fasted for 4 hours prior to oral glucose administration (2 g/kg, t=0 min). Blood samples were drawn prior to glucose administration and at 15, 30, 60, 90, 120, and 180 min thereafter. Feed was returned after the last blood sampling. Results are represented as change from baseline, glucose in mmol/l and HbA1c in %.
Statistical analyses are performed with Everstat Version 6.0 based on SAS by 1-way-ANOVA, followed by Dunnett's post-hoc test against vehicle-control. Differences are considered statistically significant at the p<0.05 level.
Female dbdb-mice, received 3 and 10 μg/kg of SEQ ID NO: 16 and 10 μg/kg of SEQ ID NO: 21 or phosphate buffered saline (vehicle control) once daily, subcutaneously over four weeks.

[7] = test system: female diet-induced obese (DIO) C57BL/6NCrl mice; test: Body weight in DIO mice, 14 weeks of prefeeding with high-fat diet (method 2); type: in vivo
Description: Female C57BL/6NCrl mice were housed in groups in a specific pathogen-free barrier facility on a 12 h light/dark cycle with free access to water and high-fat diet. After 14 weeks on high-fat diet, mice were stratified to treatment groups (n=8), so that each group had similar mean body weight.
An aged-matched group with ad libitum access to standard chow and water was included as standard control group.
Before the experiment, mice were subcutaneously (s.c.) injected with vehicle solution and weighed for 3 days to acclimate them to the procedures.
Body weight was recorded daily.
Statistical analyses were performed with Everstat 6.0 by repeated measures two-way ANOVA and Dunnett's post-hoc analyses (glucose profile) and 1-way-ANOVA, followed by Dunnett's post-hoc test (body weight, body fat). Differences versus vehicle-treated DIO control mice were considered statistically significant at the p<0.05 level.
Female obese C57BL/6NCrl mice were treated for 3 weeks once daily subcutaneously in the late afternoon, prior the end of the light phase (12 h lights on) with 10 μg/kg SEQ ID NO: 9 and SEQ ID NO: 21 or vehicle. Body weight was recorded daily.

[8] = target: T2, human GIP receptor (Homo sapiens, UniProt P48546); test: cAMP response (HTRF) of HEK-293 cells stably expressing human GIP receptor; type: cell-based; conditions: Table 7; cAMP formation; read-out: EC50 hGIP R
T2 construct: expressed in transfected cells
T2 sequence (P48546 22-466): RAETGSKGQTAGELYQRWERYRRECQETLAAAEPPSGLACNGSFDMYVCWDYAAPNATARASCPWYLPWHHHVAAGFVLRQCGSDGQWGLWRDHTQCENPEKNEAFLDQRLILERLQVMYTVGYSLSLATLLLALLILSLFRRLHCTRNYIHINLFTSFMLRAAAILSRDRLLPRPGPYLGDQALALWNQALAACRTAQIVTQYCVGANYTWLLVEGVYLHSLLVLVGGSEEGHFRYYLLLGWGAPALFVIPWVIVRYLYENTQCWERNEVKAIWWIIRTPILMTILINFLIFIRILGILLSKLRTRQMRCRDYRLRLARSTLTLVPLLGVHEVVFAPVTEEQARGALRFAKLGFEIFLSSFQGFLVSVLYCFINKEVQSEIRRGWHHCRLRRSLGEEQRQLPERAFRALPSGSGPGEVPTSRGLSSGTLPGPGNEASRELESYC
Description: cAMP content of cells was determined using a kit from Cisbio Corp. (cat. no. 62AM4PEC) based on HTRF (Homogenous Time Resolved Fluorescence). For preparation, cells were split into T175 culture flasks and grown overnight to near confluency in medium (DMEM/10% FBS). Medium was then removed and cells washed with PBS lacking calcium and magnesium, followed by proteinase treatment with accutase (Sigma-Aldrich cat. no. A6964). Detached cells were washed and resuspended in assay buffer (1×HBSS; 20 mM HEPES, 0.1% BSA, 2 mM IBMX) and cellular density determined. They were then diluted to 400000 cells/ml and 25 μl-aliquots dispensed into the wells of 96-well plates. For measurement, 25 μl of test compound in assay buffer was added to the wells, followed by incubation for 30 minutes at room temperature.

[9] = Pharmacokinetic testing in Göttinger minipigs, s.c.; type: in vivo; conditions: female, minipig, plasma, sc, Mini pigs, 0.1 mg/kg s.c.
Description: Female Göttinger minipigs were dosed 0.1 mg/kg subcutaneously (s.c.). Blood samples were collected after 0.25, 0.5, 1, 2, 4, 8, 24, 32, 48, 56 and 72 hours post application. Plasma samples were analyzed after protein precipitation via liquid chromatography mass spectrometry (LC/MS). PK parameters and half-life were calculated using WinonLin Version 5.2.1 (non-compartment model).

Row | Compound | pEC50 [1] | maximal effect on glucose, change from baseline [2] [mmol/L] | solubility at 2 h ([3]; pH 4.5) [µg/mL] | solubility at 2 h ([3]; pH 7.4) [µg/mL] | Cmax [4] [ng/mL] | half-life [4] [h] | Stability (pH 4.5) ([5]; pH 4.5) [%] | Stability (pH 7.4) ([5]; pH 7.4) [%] | oral glucose tolerance [6] | reduction of AUC under the glucose curve compared to vehicle control [6] | maximal effect, glucose reduction [2] [mmol/L] | decrease of body weight, relative change from baseline ([7]; 10 μg/kg s.c. once daily, 3 weeks) [%] | Overall weight change ([7]; 10 μg/kg, 3-week treatment, mean ± SEM) [g] | pEC50 [8] | Cmax [9] [ng/mL] | half-life [9] [h]
1 | CCCCCCCCCCCCCCCCCC(=O)N[C@@H](CCC(=O)NCCCC[C@H](NC(=O)[C@H](CCC(N)=O)NC(=O)[C@@H](NC(=O)[C@H](CO)NC(=O)[C@H](CC(C)C)NC(=O)[C@H](CC(=O)O)NC(=O)[C@H](CO)NC(=O)[C@@H](NC(=O)[C@H](Cc1ccccc1)NC(=O)[C@@H](NC(=O)CNC(=O)[C@H](CCC(=O)O)NC(=O)C(C)(C)NC(=O)[C@@H](N)Cc1ccc(O)cc1)[C@@H](C)O)[C@@H](C)O)[C@@H](C)CC)C(=O)N[C@@H](CCC(=O)O)C(=O)N[C@@H](CCCCN)C(=O)N[C@@H](CCCNC(=N)N)C(=O)N[C@@H](C)C(=O)N[C@@H](C)C(=O)N[C@@H](CCC(N)=O)C(=O)N[C@@H](CCC(=O)O)C(=O)N[C@@H](Cc1ccccc1)C(=O)N[C@H](C(=O)N[C@@H](CCC(=O)O)C(=O)N[C@@H](Cc1c[nH]c2ccccc12)C(=O)N[C@@H](CC(C)C)C(=O)N[C@@H](CCCCN)C(=O)N[C@@H](C)C(=O)NCC(=O)NCC(=O)N1CCC[C@H]1C(=O)N[C@@H](CO)C(=O)N[C@@H](CO)C(=O)NCC(=O)N[C@@H](C)C(=O)N1CCC[C@H]1C(=O)N1CCC[C@H]1C(=O)N1CCC[C@H]1C(=O)N[C@@H](CO)C(N)=O)[C@@H](C)CC)C(=O)O [SEQ ID NO: 14, Y-Aib-E-G-T-F-T-S-D-L-S-I-Q-K(γE-x70)-EKRAAQEFIEWLKAGGPSSGAPPPS-NH2] (H-Y[Aib]EGTFTSDLSIQK([γGlu-Stearoyl])EKRAAQEFIEWLKAGGPSSGAPPPS-NH2) | 11.37 | -8 | > 1000 | > 1000 | 5340 | 2.8 | 96.0 | 94.0 | – | – | – | – | – | – | – | –
2 | CCCCCCCCCCCCCCCCCC(=O)N[C@@H](CCC(=O)N[C@@H](CCC(=O)NCCCC[C@H](NC(=O)[C@H](CCC(N)=O)NC(=O)[C@@H](NC(=O)[C@H](CO)NC(=O)[C@H](CC(C)C)NC(=O)[C@H](CC(=O)O)NC(=O)[C@H](CO)NC(=O)[C@@H](NC(=O)[C@H](Cc1ccccc1)NC(=O)[C@@H](NC(=O)CNC(=O)[C@H](CCC(=O)O)NC(=O)C(C)(C)NC(=O)[C@@H](N)Cc1ccc(O)cc1)[C@@H](C)O)[C@@H](C)O)[C@@H](C)CC)C(=O)N[C@@H](CCC(=O)O)C(=O)N[C@@H](CCCCN)C(=O)N[C@@H](CCCNC(=N)N)C(=O)N[C@@H](C)C(=O)N[C@@H](C)C(=O)NC(C)(C)C(=O)N[C@@H](CCC(=O)O)C(=O)N[C@@H](Cc1ccccc1)C(=O)N[C@H](C(=O)N[C@@H](CCC(=O)O)C(=O)N[C@@H](Cc1c[nH]c2ccccc12)C(=O)N[C@@H](CC(C)C)C(=O)N[C@@H](CCCCN)C(=O)N[C@@H](CC(N)=O)C(=O)N[C@H](C(=O)NCC(=O)N1CCC[C@H]1C(=O)N[C@@H](CO)C(=O)N[C@@H](CO)C(=O)NCC(=O)N[C@@H](C)C(=O)N1CCC[C@H]1C(=O)N1CCC[C@H]1C(=O)N1CCC[C@H]1C(=O)N[C@@H](CO)C(N)=O)[C@@H](C)O)[C@@H](C)CC)C(=O)O)C(=O)O [SEQ ID NO: 16, Y-Aib-E-G-T-F-T-S-D-L-S-I-Q-K(γE-γE-x70)-E-K-R-A-A-Aib-E-F-I-E-W-L-K-N-T-G-P-S-S-G-A-P-P-P-S-NH2] (H-Y[Aib]EGTFTSDLSIQK([γGlu-γGlu-Stearoyl])EKRAA[Aib]EFIEWLKNTGPSSGAPPPS-NH2) | 11.40 | – | – | – | 3460 | 5.3 | – | – | improved oral glucose tolerance | reached statistical significance | – | – | – | – | – | –
3 | CCCCCCCCCCCCCCCCCC(=O)N[C@@H](CCC(=O)NCCCC[C@H](NC(=O)[C@H](CCC(N)=O)NC(=O)[C@@H](NC(=O)[C@H](CO)NC(=O)[C@H](CC(C)C)NC(=O)[C@H](CC(=O)O)NC(=O)[C@H](CO)NC(=O)[C@@H](NC(=O)[C@H](Cc1ccccc1)NC(=O)[C@@H](NC(=O)CNC(=O)[C@H](CCC(=O)O)NC(=O)C(C)(C)NC(=O)[C@@H](N)Cc1ccc(O)cc1)[C@@H](C)O)[C@@H](C)O)[C@@H](C)CC)C(=O)N[C@@H](CCC(=O)O)C(=O)N[C@@H](CO)C(=O)N[C@@H](CCCNC(=N)N)C(=O)N[C@@H](C)C(=O)N[C@@H](C)C(=O)N[C@@H](CCC(N)=O)C(=O)N[C@@H](CCC(=O)O)C(=O)N[C@@H](Cc1ccccc1)C(=O)N[C@H](C(=O)N[C@@H](CCC(=O)O)C(=O)N[C@@H](Cc1c[nH]c2ccccc12)C(=O)N[C@@H](CC(C)C)C(=O)N[C@@H](CCCCN)C(=O)N[C@@H](C)C(=O)NCC(=O)NCC(=O)N1CCC[C@H]1C(=O)N[C@@H](CO)C(=O)N[C@@H](CO)C(=O)NCC(=O)N[C@@H](C)C(=O)N1CCC[C@H]1C(=O)N1CCC[C@H]1C(=O)N1CCC[C@H]1C(=O)N[C@@H](CO)C(N)=O)[C@@H](C)CC)C(=O)O [SEQ ID NO: 21, Y-Aib-E-G-T-F-T-S-D-L-S-I-Q-K(γE-x70)-ESRAAQEFIEWLKAGGPSSGAPPPS-NH2] (H-Y[Aib]EGTFTSDLSIQK([γGlu-Stearoyl])ESRAAQEFIEWLKAGGPSSGAPPPS-NH2) | – | – | – | – | 5050 | 4 | – | – | improved oral glucose tolerance | reached statistical significance | 10 to 12 | ≤ 18.0 | -7.3 ± 0.7 | 11.19 | 479 | 19.1
